Test results taken from the NIST ThermoML archive (doi:10.1016/j.fluid.2016.06.011).

Conditions: Liquid; for vapor or sublimation pressure: Closed cell (Static) method; for mass density: 101.33 kPa, Vibrating tube method

OCC(F)(F)C(F)(F)C(F)(F)C(F)(F)C(F)(F)F [2,2,3,3,4,4,5,5,6,6,6-undecafluorohexan-1-ol]
Conditions	mass density [kg/m3]	vapor or sublimation pressure [kPa]
278.14 K	–	0.0688
278.15 K	1746.4	–
279.15 K	1744.56	–
280.15 K	1742.69	–
281.15 K	1740.82	–
282.15 K	1738.95	–
283.1 K	–	0.1098
283.15 K	1737.07	–
284.15 K	1735.19	–
285.15 K	1733.3	–
286.15 K	1731.41	–
287.15 K	1729.52	–
288.08 K	–	0.1712
288.15 K	1727.62	–
289.15 K	1725.71	–
290.15 K	1723.81	–
291.15 K	1721.89	–
292.15 K	1719.98	–
293.08 K	–	0.2615
293.15 K	1718.06	–
294.15 K	1716.13	–
295.15 K	1714.2	–
296.15 K	1712.27	–
297.15 K	1710.32	–
298.13 K	–	0.3944
298.15 K	1708.38	–
299.15 K	1706.43	–
300.15 K	1704.47	–
301.15 K	1702.5	–
302.15 K	1700.54	–
303.1 K	–	0.5819
303.15 K	1698.57	–
304.15 K	1696.59	–
305.15 K	1694.61	–
306.15 K	1692.62	–
307.15 K	1690.62	–
308.06 K	–	0.8405
308.15 K	1688.62	–
309.15 K	1686.62	–
310.15 K	1684.61	–
311.15 K	1682.59	–
312.15 K	1680.57	–
313.01 K	–	1.205
313.15 K	1678.54	–
314.15 K	1676.51	–
315.15 K	1674.47	–
316.15 K	1672.43	–
317.15 K	1670.38	–
317.98 K	–	1.708
318.15 K	1668.32	–
319.15 K	1666.26	–
320.15 K	1664.19	–
321.15 K	1662.11	–
322.15 K	1660.03	–
322.93 K	–	2.349
323.15 K	1657.95	–
324.15 K	1655.85	–
325.15 K	1653.75	–
326.15 K	1651.65	–
327.15 K	1649.54	–
327.93 K	–	3.25
328.15 K	1647.42	–
329.15 K	1645.29	–
330.15 K	1643.16	–
331.15 K	1641.02	–
332.15 K	1638.87	–
333.15 K	1636.72	–
334.15 K	1634.57	–
335.15 K	1632.41	–
336.15 K	1630.23	–
337.15 K	1628.06	–
338.15 K	1625.88	–
339.15 K	1623.69	–
340.15 K	1621.49	–
341.15 K	1619.29	–
342.15 K	1617.08	–
343.15 K	1614.86	–
344.15 K	1612.64	–
345.15 K	1610.41	–
346.15 K	1608.17	–
347.15 K	1605.92	–
348.15 K	1603.67	–

OCC(F)(F)C(F)(F)F [2,2,3,3,3-pentafluoropropanol]
Conditions	mass density [kg/m3]	vapor or sublimation pressure [kPa]
278.16 K	1542.78	–
279.15 K	1540.99	–
280.15 K	1539.17	–
281.15 K	1537.35	–
282.15 K	1535.52	–
283.15 K	1533.69	–
284.15 K	1531.86	–
285.15 K	1530.02	–
286.15 K	1528.18	–
287.15 K	1526.33	–
288.15 K	1524.47	–
289.15 K	1522.62	–
290.15 K	1520.75	–
291.15 K	1518.88	–
292.15 K	1517	–
293.15 K	1515.12	–
294.15 K	1513.23	–
295.15 K	1511.35	–
296.15 K	1509.44	–
297.15 K	1507.54	–
298.08 K	–	6.205
298.15 K	1505.63	–
299.15 K	1503.71	–
300.15 K	1501.79	–
301.15 K	1499.86	–
302.15 K	1497.92	–
303.05 K	–	8.416
303.15 K	1495.97	–
304.15 K	1494.03	–
305.14 K	1492.07	–
306.15 K	1490.1	–
307.15 K	1488.13	–
308.04 K	–	11.31
308.15 K	1486.15	–
309.14 K	1484.16	–
310.14 K	1482.16	–
311.14 K	1480.16	–
312.14 K	1478.14	–
313.01 K	–	14.97
313.14 K	1476.12	–
314.15 K	1474.09	–
315.15 K	1472.06	–
316.14 K	1470.01	–
317.14 K	1467.95	–
317.98 K	–	19.59
318.15 K	1465.89	–
319.14 K	1463.82	–
320.14 K	1461.73	–
321.15 K	1459.64	–
322.14 K	1457.55	–
322.96 K	–	25.41
323.14 K	1455.43	–
324.14 K	1453.31	–
325.14 K	1451.18	–
326.14 K	1449.05	–
327.14 K	1446.89	–
327.93 K	–	32.49
328.15 K	1444.74	–
329.15 K	1442.57	–
330.14 K	1440.39	–
331.14 K	1438.2	–
332.14 K	1436	–
333.14 K	1433.79	–
334.14 K	1431.57	–
335.14 K	1429.34	–
336.14 K	1427.1	–
337.14 K	1424.84	–
338.14 K	1422.58	–
339.14 K	1420.31	–
340.14 K	1418.03	–
341.14 K	1415.72	–
342.14 K	1413.42	–
343.15 K	1411.1	–
344.15 K	1408.78	–
345.15 K	1406.43	–
346.15 K	1404.08	–
347.15 K	1401.72	–
348.15 K	1399.34	–
349.14 K	1396.95	–
350.14 K	1394.55	–
351.14 K	1392.14	–
352.14 K	1389.72	–
353.14 K	1387.29	–

OCC(F)(F)C(F)(F)C(F)(F)C(F)(F)F [2,2,3,3,4,4,5,5,5-nonafluoropentan-1-ol]
Conditions	mass density [kg/m3]	vapor or sublimation pressure [kPa]
278.14 K	–	0.2236
278.15 K	1689.58	–
279.15 K	1687.71	–
280.15 K	1685.83	–
281.15 K	1683.95	–
282.15 K	1682.07	–
283.1 K	–	0.3363
283.15 K	1680.18	–
284.15 K	1678.29	–
285.15 K	1676.39	–
286.15 K	1674.48	–
287.15 K	1672.58	–
288.07 K	–	0.502
288.15 K	1670.67	–
289.15 K	1668.76	–
290.15 K	1666.84	–
291.15 K	1664.91	–
292.15 K	1662.98	–
293.06 K	–	0.7329
293.15 K	1661.05	–
294.15 K	1659.11	–
295.15 K	1657.16	–
296.15 K	1655.22	–
297.15 K	1653.26	–
298.09 K	–	1.07
298.15 K	1651.3	–
299.15 K	1649.34	–
300.15 K	1647.37	–
301.15 K	1645.39	–
302.15 K	1643.41	–
303.1 K	–	1.531
303.15 K	1641.42	–
304.15 K	1639.43	–
305.15 K	1637.43	–
306.15 K	1635.43	–
307.15 K	1633.42	–
308.06 K	–	2.152
308.15 K	1631.4	–
309.15 K	1629.38	–
310.15 K	1627.35	–
311.15 K	1625.32	–
312.15 K	1623.28	–
313.02 K	–	2.979
313.15 K	1621.23	–
314.15 K	1619.17	–
315.15 K	1617.12	–
316.15 K	1615.05	–
317.15 K	1612.98	–
317.98 K	–	4.071
318.15 K	1610.9	–
319.15 K	1608.81	–
320.15 K	1606.72	–
321.15 K	1604.62	–
322.15 K	1602.52	–
322.99 K	–	5.496
323.15 K	1600.4	–
324.15 K	1598.29	–
325.15 K	1596.16	–
326.15 K	1594.03	–
327.15 K	1591.88	–
327.95 K	–	7.315
328.15 K	1589.74	–
329.15 K	1587.59	–
330.15 K	1585.42	–
331.15 K	1583.26	–
332.15 K	1581.08	–
333.15 K	1578.9	–
334.15 K	1576.7	–
335.15 K	1574.51	–
336.15 K	1572.3	–
337.15 K	1570.09	–
338.15 K	1567.87	–
339.15 K	1565.64	–
340.15 K	1563.41	–
341.15 K	1561.17	–
342.15 K	1558.91	–
343.15 K	1556.65	–
344.15 K	1554.39	–
345.15 K	1552.11	–
346.14 K	1549.83	–
347.15 K	1547.45	–
348.15 K	1545.15	–
349.15 K	1542.85	–
350.15 K	1540.53	–
351.15 K	1538.2	–
352.15 K	1535.87	–
353.15 K	1533.52	–

OCC(F)(F)C(F)(F)C(F)(F)F [2,2,3,3,4,4,4-heptafluorobutanol]
Conditions	mass density [kg/m3]	vapor or sublimation pressure [kPa]
278.14 K	–	0.7213
278.15 K	1633.59	–
279.15 K	1631.74	–
280.15 K	1629.87	–
281.15 K	1627.99	–
282.15 K	1626.11	–
283.1 K	–	1.047
283.15 K	1624.23	–
284.15 K	1622.34	–
285.15 K	1620.44	–
286.15 K	1618.54	–
287.15 K	1616.63	–
288.08 K	–	1.495
288.15 K	1614.73	–
289.15 K	1612.81	–
290.15 K	1610.89	–
291.15 K	1608.97	–
292.15 K	1607.04	–
293.08 K	–	2.117
293.15 K	1605.11	–
294.15 K	1603.16	–
295.15 K	1601.22	–
296.15 K	1599.26	–
297.15 K	1597.31	–
298.1 K	–	2.965
298.15 K	1595.34	–
299.15 K	1593.37	–
300.15 K	1591.39	–
301.15 K	1589.41	–
302.15 K	1587.41	–
303.07 K	–	4.086
303.15 K	1585.41	–
304.15 K	1583.41	–
305.15 K	1581.4	–
306.15 K	1579.38	–
307.15 K	1577.36	–
308.04 K	–	5.551
308.15 K	1575.32	–
309.14 K	1573.28	–
310.15 K	1571.23	–
311.15 K	1569.18	–
312.15 K	1567.12	–
313.03 K	–	7.473
313.14 K	1565.05	–
314.15 K	1562.97	–
315.15 K	1560.89	–
316.15 K	1558.79	–
317.15 K	1556.69	–
317.98 K	–	9.905
318.15 K	1554.58	–
319.14 K	1552.46	–
320.15 K	1550.34	–
321.15 K	1548.2	–
322.14 K	1546.06	–
322.95 K	–	13.14
323.14 K	1543.91	–
324.14 K	1541.75	–
325.15 K	1539.58	–
326.14 K	1537.4	–
327.14 K	1535.21	–
327.91 K	–	17.26
328.15 K	1533.02	–
329.15 K	1530.81	–
330.14 K	1528.6	–
331.14 K	1526.38	–
332.15 K	1524.14	–
333.14 K	1521.91	–
334.14 K	1519.66	–
335.14 K	1517.4	–
336.14 K	1515.13	–
337.14 K	1512.85	–
338.14 K	1510.57	–
339.14 K	1508.28	–
340.14 K	1505.97	–
341.14 K	1503.65	–
342.14 K	1501.33	–
343.14 K	1498.99	–
344.15 K	1496.65	–
345.15 K	1494.29	–
346.15 K	1491.93	–
347.15 K	1489.55	–
348.14 K	1487.16	–
349.14 K	1484.77	–
350.14 K	1482.37	–
351.14 K	1479.94	–
352.14 K	1477.52	–
353.14 K	1475.08	–
